This is an account of results in patent publication US9125855B2, “Prevention of Salmonella recrudescense” (priority 2011, dated 2015).

Data set [1] deals with Salmonella Typhimurium in PAM. Briefly: Intracellular survival assay in PAM. It is filed as cell-based, porcine. To be noted: for intracellular proliferation of Salmonella Typhimurium in PAM: 1 μM. From the text:
Porcine pulmonary alveolar macrophages (PAM) were isolated by broncho-alveolar washes from lungs of euthanized 3 to 4 week old piglets, obtained from a Salmonella-negative farm, as described previously (Dom et al., 1992). The isolated cells were pooled and frozen in liquid nitrogen until further use. Prior to seeding the cells, frozen aliquots of approximately 10^8 cells per ml were thawed and washed 3 times in Hank's buffered salt solution with Ca^2+ and Mg^2+ (HBSS+, Gibco) with 10% (v/v) fetal calf serum (FKS, Hyclone, Cramlington, England) at 4° C. Finally, these cells were cultured in Roswell Park Memorial Institute medium (RPMI, Gibco) containing 10% (v/v) FKS, 1% (v/v) L-glutamine (Gibco), 1% (v/v) sodium pyruvate (Gibco), 1% (v/v) MEM non essential amino acids (NEAA, Gibco) and 1% (v/v) penicillin-streptomycin (Gibco).
(§1) The number of viable bacteria was assessed 24 hours after infection.
Following the IVET screening, the intracellular survival assay was repeated with Salmonella Typhimurium ΔscsA and ΔcbpA and compared to the WT.

Data set [2] has as its system Salmonella Typhimurium in IPEC-J2 cells. The data set is described as follows: Intracellular survival assay in IPEC-J2 cells. The format is cell-based, porcine. As for the experimental part:
The polarized intestinal porcine epithelial (IPEC-J2) cell line is derived from jejunal epithelia isolated from a neonatal piglet (Rhoads et al., 1994; Schierack et al., 2006).
as §1

Data set [3] concerns Salmonella Typhimurium in PAM. Briefly: Invasion assay in PAM. To be noted: for invasion of Salmonella Typhimurium in PAM: 1 μM. The format is cell-based, porcine. The protocol:
(§2) For the invasion assays, PAM and IPEC-J2 cells were seeded in 24-well plates at a density of approximately 5×10^5 cells and 10^5 cells per well, respectively. PAM were allowed to attach for at least 2 hours and IPEC-J2 cells were allowed to grow for at least 24 hours. […] After 24 hours the invasion assay was performed as described by Boyen et al., 2009a. Finally the PAM and IPEC-J2 cells were washed 3 times and lysed for 10 min with 1% (v/v) Triton X-100 or 0.2% (w/v) sodium deocxycholate (Sigma-Aldrich), respectively and 10-fold dilutions were plated on BGA plates.

Data set [4] relates to Salmonella Typhimurium in IPEC-J2 cells. Briefly: Invasion assay in IPEC-J2 cells. The format is cell-based, porcine. The conditions noted are these: for invasion of Salmonella Typhimurium in IPEC-J2 cells: 1 μM. As for the experimental part:
as §2

In data set [5] the test system is Salmonella Typhimurium WT. The data set is described as follows: Effect of cortisol on the growth of Salmonella Typhimurium. The conditions noted are these: 0.001 to 100 μM, LB broth, 24 hours. As for the experimental part: Therefore, Salmonella Typhimurium was grown in LB broth whether or not supplemented with cortisol. The number of CFU per ml was determined at different time points by titration of 10-fold dilutions of the bacterial suspensions on BGA. After incubation for 24 hours at 37° C., the number of colonies was counted.

For data set [6], the system named is Salmonella Typhimurium WT. The data set is described as follows: Effect of cortisol on the gene expression of Salmonella Typhimurium (microarray). The conditions noted are these: 1 μM, stationary and logarithmic phase culture. As for the experimental part:
Two OD600 nm units of each culture were incubated in one-fifth culture volume 5% (v/v) phenol pH 4.3/95% (v/v) ethanol solution for 30 min on ice to stabilize the RNA. Subsequently, the RNA was extracted using the SV Total RNA purification kit (Promega, Leiden, the Netherlands).
Each condition was tested in triplicate and transcriptomic techniques involved Salmonella Typhimurium microarrays constructed at the Institute of Food Research, Norwich, UK, as described previously (Clements et al., 2002; Yberg et al., 2006). The microarray used in this study was the whole-genome SALSA cDNA microarray covering 5080 genes and data analysis was performed as described by Eriksson-Ygberg et al., 2006.

Data set [7] deals with PAM. Briefly: Cytotoxicity assay (LDH). The conditions noted are these: 0.001 to 100 μM. The format is cell-based, porcine. The protocol:
Therefore PAM were seeded in a 96-well microplate at a density of approximately 2×10^5 cells per well and were allowed to attach for at least 2 hours. The IPEC-J2 cells were seeded and allowed to grow for at least 24 hours in a 96-well microplate at a density of approximately 2×10^4 cells per well in Dulbecco's modified Eagle's is medium (DMEM, Gibco) supplemented with 46.5% (v/v) Ham's F12 medium (Gibco), 5% (v/v) FKS and 1% insulin-transferrin-selenium-A supplement (ITS, Gibco).
The LDH test was used in accordance to the manufacturer's instructions and the absorbance was measured at 492 nm using a microplate ELISA reader (Multiscan M S, Thermo Labsystems, Helsinki, Finland).

Data set [8] relates to Salmonella Typhimurium infected PAM. The data set is described as follows: iTRAQ comparative proteome study of cortisol treated Salmonella infected PAM. It is filed as cell-based, porcine. The conditions noted are these: 1 μM cortisol. From the text:
We used a gel-free approach called isobaric tags for relative and absolute quantification (iTRAQ) in which four different isobaric labels are used to tag N-termini and lysine side chains of four different samples with four different isobaric reagents. Upon collision-induced dissociation during MS/MS, the isobaric tags are released, which results in four unique reporter ions that are used to quantify the proteins in the four different samples (Ross et al., 2004).
Sample preparation: PAM were isolated and cultured as described in Verbrugghe et al. (2011), they were seeded in 175 cm^2 cell culture flasks at a density of approximately 5×10^7 cells per flask and were allowed to attach for 2 hours. Subsequently, PAM were washed 3 times with Hank's buffered salt solution with Ca^2+ and Mg^2+ (HBSS+, Gibco) and a gentamicin protection invasion assay was performed as described by Boyen et al. (2009a). Briefly, Salmonella was inoculated into the cell culture flasks at a multiplicity of infection (MOI) of 10:1. To synchronize the infection, the inoculated flasks were centrifuged at 365×g for 10 min and incubated for 30 min at 37° C. under 5% CO2. […] The supernatant was held on ice until further use and the pellet was dissolved and sonicated (6 times 30 sec), using an ultrasonic processor XL 2015 (Misonix, Farmingdale, N.Y., USA), in reagent 3 of the Ready Prep Sequential extraction kit (Bio-Rad, Hercules, Calif., USA). […] Protein concentration was determined using the Bradford Protein Assay (Thermo Fisher Scientific, Rockford, USA) according to the manufacterer's instructions.
Trypsin digest and iTRAQ labeling: Digest and labeling of the samples (100 μg proteins per sample) with iTRAQ reagents was performed according to the manufacturer's guidelines (AB Sciex, Foster City, Calif., USA). Individual samples of cortisol treated or untreated PAM were analyzed in the same run, making paired comparisons possible and minimizing technical variation. […] Each fraction was analyzed by nano LC-MSMS as described by Bijttebier et al. (2009). […]

The test system of data set [9] is Salmonella Typhimurium in PAM. To be noted: 1 μM, 24 hours; cited from earlier work.
Data set [10] relates to Salmonella Typhimurium in PAM. The data set is described as follows: Contribution of the cytoskeleton to cortisol induced intracellular proliferation in PAM. The format is cell-based, porcine. To be noted: 2 μM cytochalasin D and/or 20 μM nocodazole, 1 μM cortisol, 24 hours. The protocol:
Therefore, PAM is were seeded in 24-well plates at a density of approximately 5×10^5 cells per well, allowed to attach for 2 hours and infected with Salmonella, as described in the iTRAQ analysis.

Data set [11] deals with pig. To be noted: 2 mg dexamethasone per kg body weight; cited from earlier work.

Consider `CNC[C@H](O)c1ccc(O)c(O)c1` [Epinephrine, epinephrine], for which, in [1], the “intracellular proliferation of Salmonella Typhimurium in PAM” value (“intracellular proliferation … in PAM” for short) was “did neither affect”. Further, the “intracellular proliferation of Salmonella Typhimurium in IPEC-J2 cells” value (“intracellular proliferation … in IPEC-J2 cells” for short) in data set [2] (1 μM) is listed as “did neither affect”. Further, the “invasion of Salmonella Typhimurium in PAM” value in [3] is reported as “did neither affect”. Further, the “invasion of Salmonella Typhimurium in IPEC-J2 cells” value in [4] was “did neither affect”.
Take `C[C@]12CCC(=O)C=C1CC[C@@H]1[C@@H]2[C@@H](O)C[C@@]2(C)[C@H]1CC[C@]2(O)C(=O)CO` [cortisol, Cortisol]: in [5], the “growth of Salmonella” value was “did not affect”. Also, the “gene expression levels by microarray analysis” value in data set [6] is listed as “did not significantly affect”. In data set [1] (24 hours), the “intracellular proliferation of Salmonella Typhimurium in treated PAM in comparison to non-treated cells” value is “higher”. For the same compound, the “concentration leading to a significant dose-dependent increase of the number of intracellular bacteria” value in data set [1] (PAM, 24 hours) turned out to be 100 nM. The “intracellular proliferation … in IPEC-J2 cells” value in data set [2] (0.001 to 100 μM) is recorded as “did neither affect”. Besides, the “invasion in PAM” value in data set [3] (0.001 to 100 μM) is on record as “did neither affect”. In addition, in data set [4] (0.001 to 100 μM), the “invasion in IPEC-J2 cells” value is recorded as “did neither affect”. The “effect on cell viability” value in data set [7] is recorded as “did not exert a notable effect”. Moreover, in data set [8], the “number of proteins more abundant in cortisol treated PAM” value is listed as 21; the “number of proteins with higher levels in untreated PAM” value is listed as “Two”; the “number of proteins with recurrent expressional differences, treated vs untreated infected PAM” value is 23. In data set [9], the “number of intracellular Salmonella Typhimurium bacteria compared to untreated PAM” value is given as “significant increase”.
For `C=C1[C@@H](C)[C@H]2[C@H](Cc3ccccc3)NC(=O)[C@]23[C@H](OC(C)=O)/C=C/[C@@](C)(O)C(=O)[C@@H](C)C/C=C/[C@H]3[C@@H]1O` [cytochalasin D], the “cortisol induced increased survival of the bacterium in PAM” value in [10] is listed as “inhibition”.
For `C[C@@H]1C[C@H]2[C@@H]3CCC4=CC(=O)C=C[C@]4(C)[C@@]3(F)[C@@H](O)C[C@]2(C)[C@@]1(O)C(=O)CO` [dexamethasone], the “effect on cell viability” value in [7] was “did not exert a notable effect”. Moreover, the “immunosuppression of the pig” value in data set [11] is recorded as “does not cause immunosuppression”.
As for `NCCc1ccc(O)c(O)c1` [dopamine], the “intracellular proliferation … in PAM” value in data set [1] was “did neither affect”. Moreover, in [2] (1 μM), the “intracellular proliferation … in IPEC-J2 cells” value was “did neither affect”. Besides, the “invasion of Salmonella Typhimurium in PAM” value in data set [3] was “did neither affect”. The “invasion of Salmonella Typhimurium in IPEC-J2 cells” value in [4] is recorded as “did neither affect”.
In the case of `COC(=O)Nc1nc2ccc(C(=O)c3cccs3)cc2[nH]1` [nocodazole], the “cortisol induced increased survival of the bacterium in PAM” value in [10] is “inhibition”.
For `NC[C@H](O)c1ccc(O)c(O)c1` [norepinephrine], in data set [1], the “intracellular proliferation … in PAM” value is given as “did neither affect”. In addition, in data set [2] (1 μM), the “intracellular proliferation … in IPEC-J2 cells” value is reported as “did neither affect”. In data set [3], the “invasion of Salmonella Typhimurium in PAM” value was “did neither affect”. Besides, the “invasion of Salmonella Typhimurium in IPEC-J2 cells” value in data set [4] is listed as “did neither affect”.
